Test results reported in patent US20200289482A1, “CYSTIC FIBROSIS TRANSMEMBRANE CONDUCTANCE REGULATOR MODULATORS FOR TREATING AUTOSOMAL DOMINANT POLYCYSTIC KIDNEY DISEASE” (The Johns Hopkins University, priority 2017, published 2020).

Experiments:
CFTR = CFTR (Mus musculus, UniProt P26361); experiment: CFTR expression in PN cells; format: cell-based; set-up: endogenous in cells; host or cells: PN (Pkd1-null mouse proximal tubule) cells; settings: 10 μM VX-809 for 16 h vs control PN cells
Experimental: FIG. 19A, FIG. 19B, FIG. 19C, and FIG. 19D show CFTR expression in PN cells treated with VX-809 (10 μM) for 16 h.
The expression of CFTR was evaluated in PN cells treated with VX-809 and control PN cells. PN cells were treated with 10 μM VX-809 for 16 h or a control.

Hsp27 = experiment: Cycloheximide chase, disappearance of Hsp27 in PN cells; format: cell-based, mouse; settings: VX-809 10 μM with cycloheximide 25 μM
Experimental: (§1) FIG. 9A, FIG. 9B, FIG. 9C, FIG. 9D, FIG. 9E, FIG. 9F, FIG. 9G, and FIG. 9H show Hsp27, HSp70, and Hsp90 expression in PN cells treated with VX-809 and/or cycloheximide. (A) Pkd1 null (PN) cells were treated with VX-809 (10 μM) and/or with cycloheximide (25 μM) for indicated time points before being harvested for the assay. (FIG. 9A) Western blot showing expression of Hsp27, Hsp70, and Hsp90 in VX-809-(16 h), cycloheximide-treated, or control PN cells. ((FIG. 9B. (FIG. 9C, and (FIG. 9D) Columns represent averages±standard errors of Hsp27, Hsp70, and Hsp90 expression in cells treated with VX-809 and/or cycloheximide. ((FIG. 9E) Western blot showing expression of Hsp27, Hsp70, and Hsp90 in PN cells treated with VX-809+cycloheximide or control PN cells. ((FIG. 9F, (FIG. 9G, and (FIG. 9H) Columns represent averages±standard errors of Hsp27, Hsp70, and Hsp90 expression in cells treated only with cycloheximide or in control PN cells. Data were analyzed by non-parametric t-test. The experiments were repeated 3-5 times. *P<0.05, **P<0.01;
(§2) To gain more insight into the mechanism whereby VX-809 alters Hsp protein levels, translation was inhibited by using cycloheximide (35) and the disappearance of the three Hsps was monitored. […] Hsp 90 was reduced by approximately 25%, and Hsp27 was unchanged.

Hsp70 = experiment: Cycloheximide chase, disappearance of Hsp70 in PN cells; format: cell-based, mouse; settings: VX-809 10 μM with cycloheximide 25 μM
Experimental: as §1, §2

cAMP in PN cells = experiment: Cyclic AMP enzyme immunoassay in cells; format: cell-based, mouse
Experimental: FIG. 4A, FIG. 4B, FIG. 4C, FIG. 4D, and FIG. 4E show (FIG. 4A-FIG. 4B) cAMP levels are reduced by VX-809. (FIG. 4A) cAMP levels in mouse tissue were reduced by VX-809. The kidney samples (n=6) analyzed were taken from those depicted in FIG. 1. (FIG. 4B) Confluent PN and PH cells were treated with VX-809 (10 μM) or DMSO for 16 h and then treated with forskolin (100 μM) for 30 min before the cells were harvested for the assay. Columns represent means±SEM. Statistical analysis was performed using a two-tailed Student's t-test. Each set of data is from three individual wells; Note that resting cAMP is greater in PN vs PH cells as previously shown (25). Also note that forskolin caused a large increase in cAMP. A smaller increase occurred with IBMX. However, the increase induced by forskolin alone was similar to that by IBMX plus forskolin. […] (FIG. 4C, FIG. 4D, and FIG. 4E) Adenylyl cyclase expression. (FIG. 4C) Western blot showing the expression of adenylyl cyclase (AC) 6 and AC3 in treated and control PN cells. (FIG. 4D-FIG. 4E) Columns represent means±SEM of the AC3 and AC6 expression. The data were analyzed by non-parametric t-test. The experiment was repeated four times. For all graphs, *P<0.05, **P<0.01, and ***P<0.001;
It has been shown previously in both animal and cell culture models of ADPKD that cells lacking functional PC1 have elevated cAMP levels when compared to normal (24). To assess the effect of CFTR correctors, cAMP activity was measured in PC1 conditional knockout mouse kidneys and in PN cells that were either left untreated or treated with VX-809. […] Cells were treated with forskolin, which increased cAMP levels drastically (FIG. 4B). […] Treating PN cells with forskolin or IBMX (FIG. 4B) increased the cAMP activity by ˜10-fold.
Confluent cells were treated with VX-809 (10 μM) or DMSO for 16 h before being harvested for assay. Cyclic AMP levels were measured with a direct cAMP Enzyme Immunoassay Kit (Sigma, # CA200) according to the manufacturer's protocol. The results are expressed as pmole/ml. Statistical analysis was performed using a two-tailed Student's t-test.

PC2 = experiment: Western blot of PC2 expression; format: cell-based, mouse; settings: PN cells, endogenous PC2
Experimental: FIG. 6A and FIG. 6B show PC2 expression is unchanged by VX-809. (FIG. 6A) Western blot showing expression of PC2 in treated or control cells. (FIG. 6B) Columns represent the means±SEM of the PC2 expression. The data were analyzed by non-parametric t-test. The experiment was repeated six (control) or seven times;
PC2 is a 968-amino acid protein with an approximate molecular weight of 100 kDa in its monomeric form. To determine whether VX-809 affects PC2 protein expression, western blot experiments were conducted on PN cells to determine the resting levels of endogenous PC2.

CFTR, sequence (P26361 whole entry): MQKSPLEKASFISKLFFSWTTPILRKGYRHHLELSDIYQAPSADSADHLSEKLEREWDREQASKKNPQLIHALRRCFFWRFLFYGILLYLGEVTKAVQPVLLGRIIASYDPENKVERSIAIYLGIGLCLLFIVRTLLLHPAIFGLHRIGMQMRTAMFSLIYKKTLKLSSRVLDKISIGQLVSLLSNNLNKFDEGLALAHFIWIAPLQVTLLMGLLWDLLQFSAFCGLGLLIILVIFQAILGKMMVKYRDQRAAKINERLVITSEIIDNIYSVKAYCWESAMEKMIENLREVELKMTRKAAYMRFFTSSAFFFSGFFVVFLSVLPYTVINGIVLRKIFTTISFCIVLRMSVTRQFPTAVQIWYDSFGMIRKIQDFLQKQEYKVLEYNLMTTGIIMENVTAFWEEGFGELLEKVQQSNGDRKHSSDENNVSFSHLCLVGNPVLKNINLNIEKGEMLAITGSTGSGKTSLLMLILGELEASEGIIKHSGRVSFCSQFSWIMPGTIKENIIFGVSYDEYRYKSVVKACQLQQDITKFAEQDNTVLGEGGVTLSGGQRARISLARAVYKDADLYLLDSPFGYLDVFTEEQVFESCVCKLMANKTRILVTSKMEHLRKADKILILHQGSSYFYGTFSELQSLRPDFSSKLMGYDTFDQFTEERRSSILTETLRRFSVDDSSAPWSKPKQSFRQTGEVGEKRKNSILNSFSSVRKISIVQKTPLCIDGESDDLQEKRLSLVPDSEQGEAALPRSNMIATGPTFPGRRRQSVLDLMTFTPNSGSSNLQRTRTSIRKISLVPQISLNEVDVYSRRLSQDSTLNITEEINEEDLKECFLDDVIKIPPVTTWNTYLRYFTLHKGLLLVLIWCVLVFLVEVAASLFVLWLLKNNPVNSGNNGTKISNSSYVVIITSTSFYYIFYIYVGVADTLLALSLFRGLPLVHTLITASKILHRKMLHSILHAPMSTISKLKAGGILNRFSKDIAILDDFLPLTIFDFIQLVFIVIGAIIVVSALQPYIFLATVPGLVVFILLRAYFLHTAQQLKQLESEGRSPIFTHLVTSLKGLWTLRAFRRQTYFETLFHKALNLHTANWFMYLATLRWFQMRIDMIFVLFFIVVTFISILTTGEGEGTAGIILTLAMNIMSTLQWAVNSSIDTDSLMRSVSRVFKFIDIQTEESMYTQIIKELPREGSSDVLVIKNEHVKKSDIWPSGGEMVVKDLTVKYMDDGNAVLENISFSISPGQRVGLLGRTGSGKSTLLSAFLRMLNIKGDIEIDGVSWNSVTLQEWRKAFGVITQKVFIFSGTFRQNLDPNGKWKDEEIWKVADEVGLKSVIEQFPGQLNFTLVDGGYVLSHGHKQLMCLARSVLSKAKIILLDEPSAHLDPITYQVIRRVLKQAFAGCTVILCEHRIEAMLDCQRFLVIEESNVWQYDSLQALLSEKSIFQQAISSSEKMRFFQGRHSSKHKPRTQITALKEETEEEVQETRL

**Q.** Which results are given for lumacaftor [VX-809]?
**A.** CFTR expression (CFTR): enhanced CFTR expression; Hsp27 level over the 8-h period (Hsp27): unchanged; Hsp70 levels over the 8-h period relative to time 0 (Hsp70): approximately half the level observed at time 0; forskolin-induced increase in cAMP (cAMP in PN cells; VX-809 10 μM 16 h, then forskolin 100 μM 30 min): reduced the forskolin-induced increase in cAMP; resting cAMP levels in PN cells (cAMP in PN cells; VX-809 10 μM, 16 h vs untreated PN cells): significantly decreased the cAMP levels; forskolin- or IBMX-induced increases in adenylyl cyclase activity (cAMP in PN cells; forskolin in combination with IBMX, data bars 5 and 9 FIG. 4B): did not affect the forskolin- or IBMX-induced increases in adenylyl cyclase activity; PC2 expression (PC2): no effect on PC2 expression
